Laboratory results published in PubChem BioAssay AID248 (DTP/NCI, 2004).
Several values for one entry are separate records, joined by “and”; a condition that tells them apart may be missing. Equal values may be shown once. Inconclusive results and toxic doses are left out.

Tested on: L1210 leukemia ip in BDF1 mice, survival T/C
Assay: NCI In Vivo Anticancer Drug Screen. Data for tumor model L1210 Leukemia (intraperitoneal) in B6D2F1 (BDF1) mice
Settings: endpoint: mean survival time, higher = longer survival
Method in brief: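 Antitumor effect is assessed in tumor-bearing animals. Survival in the compound arm is compared with a vehicle-dosed control arm and expressed as their quotient.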

[1] = dose: 100.0 mg/kg/injection, schedule: Q04DX003 (ip), vehicle: saline
[2] = dose: 200.0 mg/kg/injection, schedule: Q04DX003 (ip), vehicle: saline
[3] = dose: 400.0 mg/kg/injection, schedule: Q04DX003 (ip), vehicle: saline
[4] = dose: 100.0 mg/kg/injection, schedule: Q04DX003 (ip), vehicle: Klucel (hydroxypropylcellulose) (HPC)
[5] = dose: 200.0 mg/kg/injection, schedule: Q04DX003 (ip), vehicle: Klucel (hydroxypropylcellulose) (HPC)
[6] = dose: 200.0 mg/kg/injection, schedule: Q04DX003 (ip), vehicle: saline with Tween-80
[7] = dose: 100.0 mg/kg/injection, schedule: Q01DX009 (ip), vehicle: saline
[8] = dose: 200.0 mg/kg/injection, schedule: Q01DX009 (ip), vehicle: saline
[9] = dose: 100.0 mg/kg/injection, schedule: Q01DX001 (ip), vehicle: other
[10] = dose: 200.0 mg/kg/injection, schedule: Q01DX001 (ip), vehicle: other
[11] = dose: 400.0 mg/kg/injection, schedule: Q01DX001 (ip), vehicle: other
[12] = dose: 100.0 mg/kg/injection, schedule: Q01DX001 (ip), vehicle: carboxymethylcellulose (CMC)

O=NN(CCCl)C(=O)NC1C2CC3CC(C2)CC1C3 (stereo not given)
T/C (dose: 12.0 mg/kg/injection, schedule: Q01DX001 (ip), vehicle: other): 110 % of control
T/C (dose: 18.0 mg/kg/injection, schedule: Q01DX001 (ip), vehicle: other): 114 % of control
T/C (dose: 26.0 mg/kg/injection, schedule: Q01DX001 (ip), vehicle: other): 123 % of control
T/C (dose: 40.0 mg/kg/injection, schedule: Q01DX001 (ip), vehicle: other): 163 % of control
T/C (dose: 60.0 mg/kg/injection, schedule: Q01DX001 (ip), vehicle: other): 244 % of control
T/C (dose: 93.0 mg/kg/injection, schedule: Q01DX001 (ip), vehicle: other): 323 % of control
T/C (dose: 187.0 mg/kg/injection, schedule: Q01DX001 (ip), vehicle: other): 340 % of control

Cc1cc(C)c(Sc2cc(C)sc2C)c(C)c1
T/C (dose: 100.0 mg/kg/injection, schedule: Q01DX001 (ip), vehicle: acetone): 91 % of control
T/C (dose: 100.0 mg/kg/injection, schedule: Q04DX003 (ip), vehicle: acetone): 91 % of control
T/C (dose: 200.0 mg/kg/injection, schedule: Q01DX001 (ip), vehicle: acetone): 91 % of control
T/C (dose: 200.0 mg/kg/injection, schedule: Q04DX003 (ip), vehicle: acetone): 91 % of control
T/C (dose: 400.0 mg/kg/injection, schedule: Q01DX001 (ip), vehicle: acetone): 91 % of control
T/C (dose: 400.0 mg/kg/injection, schedule: Q04DX003 (ip), vehicle: acetone): 100 % of control

O=C1C(n2ccc(=O)n(Cc3ccccc3)c2=O)CCN1CCO (stereo not given)
T/C [1]: 96 % of control
T/C [2]: 119 % of control
T/C [3]: 102 % of control

Clc1ncc(Br)c(Cl)n1
T/C (dose: 6.25 mg/kg/injection, schedule: Q01DX009 (ip), vehicle: Klucel (hydroxypropylcellulose) (HPC)): 102 % of control
T/C (dose: 12.5 mg/kg/injection, schedule: Q01DX009 (ip), vehicle: Klucel (hydroxypropylcellulose) (HPC)): 102 % of control
T/C (dose: 25.0 mg/kg/injection, schedule: Q01DX009 (ip), vehicle: Klucel (hydroxypropylcellulose) (HPC)): 101 % of control
T/C (dose: 100.0 mg/kg/injection, schedule: Q04DX003 (ip), vehicle: other): 119 % of control
T/C (dose: 200.0 mg/kg/injection, schedule: Q04DX003 (ip), vehicle: other): 90 % of control

O=[N+]([O-])c1ccc(/C=C/C=C\c2ccc(S(=O)(=O)F)cc2Cl)cc1
T/C [4]: 96 % of control
T/C [5]: 92 % of control
T/C (dose: 400.0 mg/kg/injection, schedule: Q04DX003 (ip), vehicle: Klucel (hydroxypropylcellulose) (HPC)): 96 % of control

Cc1cc(=O)[nH]c2c(O)ccc([N+](=O)[O-])c12
T/C [1]: 103 % of control
T/C [2]: 103 % of control
T/C [3]: 103 % of control

O=C1NC(=O)/C(=C/c2ccco2)N1
T/C [4]: 103 % of control
T/C [5]: 90 % of control

Nn1c(C(F)(F)F)n[nH]c1=S
T/C (dose: 100.0 mg/kg/injection, schedule: Q04DX003 (ip), vehicle: alcohol): 103 % of control
T/C (dose: 200.0 mg/kg/injection, schedule: Q04DX003 (ip), vehicle: alcohol): 101 % of control
T/C (dose: 400.0 mg/kg/injection, schedule: Q04DX003 (ip), vehicle: alcohol): 95 % of control

Brc1ccc2[nH]c3c(c2c1)CSc1ccccc1-3
T/C (dose: 100.0 mg/kg/injection, schedule: Q04DX003 (ip), vehicle: saline with Tween-80): 105 % of control
T/C [6]: 99 % of control
T/C (dose: 400.0 mg/kg/injection, schedule: Q04DX003 (ip), vehicle: saline with Tween-80): 103 % of control

NC(=O)c1cn[nH]c1N1CC[N+](CCCl)=N1
T/C (dose: 50.0 mg/kg/injection, schedule: Q01DX009 (ip), vehicle: saline): 93 % of control
T/C [7]: 103 % of control
T/C [1]: 103 % of control
T/C [8]: 108 % of control
T/C [2]: 97 % of control

COc1cc(-c2nc(-c3ccc(N=Cc4ccc(N(CCOS(C)(=O)=O)CCOS(C)(=O)=O)cc4C)cc3)cs2)cc(OC)c1OC
T/C (dose: 25.0 mg/kg/injection, schedule: Q04DX003 (ip), vehicle: saline with Tween-80): 102 % of control
T/C (dose: 50.0 mg/kg/injection, schedule: Q04DX003 (ip), vehicle: saline with Tween-80): 102 % of control
T/C (dose: 66.0 mg/kg/injection, schedule: Q04DX003 (ip), vehicle: saline with Tween-80): 115 % of control and 120 % of control
T/C (dose: 150.0 mg/kg/injection, schedule: Q04DX003 (ip), vehicle: saline with Tween-80): 96 % of control and 89 % of control
T/C [6]: 110 % of control

NS(=O)(=O)c1ccc(-c2ccc([As](=O)(O)O)cc2)cc1
T/C (dose: 5.0 mg/kg/injection, schedule: Q01DX001 (ip), vehicle: saline): 96 % of control
T/C (dose: 10.0 mg/kg/injection, schedule: Q01DX001 (ip), vehicle: saline): 87 % of control
T/C (dose: 20.0 mg/kg/injection, schedule: Q01DX001 (ip), vehicle: saline): 98 % of control
T/C (dose: 40.0 mg/kg/injection, schedule: Q01DX001 (ip), vehicle: saline): 96 % of control
T/C (dose: 80.0 mg/kg/injection, schedule: Q01DX001 (ip), vehicle: saline): 98 % of control

CCCCNc1ccc(C(=O)O)cc1
T/C (dose: 100.0 mg/kg/injection, schedule: Q01DX009 (ip), vehicle: gum acacia): 97 % of control
T/C (dose: 100.0 mg/kg/injection, schedule: Q04DX003 (ip), vehicle: gum acacia): 90 % of control
T/C (dose: 200.0 mg/kg/injection, schedule: Q01DX009 (ip), vehicle: gum acacia): 92 % of control
T/C (dose: 200.0 mg/kg/injection, schedule: Q04DX003 (ip), vehicle: gum acacia): 91 % of control
T/C (dose: 400.0 mg/kg/injection, schedule: Q01DX009 (ip), vehicle: gum acacia): 93 % of control
T/C (dose: 400.0 mg/kg/injection, schedule: Q04DX003 (ip), vehicle: gum acacia): 93 % of control

NC(=O)CSc1cc(Cl)ccc1Cl
T/C [9]: 96 % of control
T/C [10]: 107 % of control
T/C [11]: 113 % of control

CC(C)=CC(=O)C1C(=O)c2ccccc2C1=O
T/C (dose: 50.0 mg/kg/injection, schedule: Q01DX001 (ip), vehicle: carboxymethylcellulose (CMC)): 96 % of control
T/C [12]: 90 % of control

COc1ccc2c(c1OC)C1(CCN(C)C#N)CCCCC1CC2 (stereo not given)
T/C (dose: 100.0 mg/kg/injection, schedule: Q01DX001 (ip), vehicle: Klucel (hydroxypropylcellulose) (HPC)): 95 % of control
T/C (dose: 200.0 mg/kg/injection, schedule: Q01DX001 (ip), vehicle: Klucel (hydroxypropylcellulose) (HPC)): 95 % of control
T/C (dose: 400.0 mg/kg/injection, schedule: Q01DX001 (ip), vehicle: Klucel (hydroxypropylcellulose) (HPC)): 86 % of control

COC(=O)CNC(=O)C(Cc1ccc(O)cc1)NC(=O)OC(C)(C)C (stereo not given)
T/C (dose: 50.0 mg/kg/injection, schedule: Q01DX005 (ip), vehicle: saline): 95 % of control
T/C (dose: 100.0 mg/kg/injection, schedule: Q01DX005 (ip), vehicle: saline): 105 % of control
T/C (dose: 200.0 mg/kg/injection, schedule: Q01DX005 (ip), vehicle: saline): 96 % of control
T/C (dose: 400.0 mg/kg/injection, schedule: Q01DX005 (ip), vehicle: saline): 98 % of control

O=C(OCCCCCOC(=O)c1cccc([N+](=O)[O-])c1)c1cccc([N+](=O)[O-])c1
T/C [9]: 93 % of control
T/C [10]: 96 % of control
T/C [11]: 95 % of control

O=C(NC(C(O)CO)C(O)C(O)CO)c1ccccc1 (stereo not given)
T/C [1]: 104 % of control
T/C [2]: 105 % of control
T/C [3]: 102 % of control

C1=C(COC(c2ccccc2)(c2ccccc2)c2ccccc2)CCCC1
T/C [12]: 87 % of control
T/C (dose: 400.0 mg/kg/injection, schedule: Q01DX001 (ip), vehicle: carboxymethylcellulose (CMC)): 87 % of control

CC(C)(C)C(C)(O)CN (stereo not given)
T/C [7]: 95 % of control
T/C [8]: 95 % of control
T/C (dose: 400.0 mg/kg/injection, schedule: Q01DX009 (ip), vehicle: saline): 95 % of control

COc1ccc(N=Cc2cc(Br)ccc2O)cc1
T/C (dose: 100.0 mg/kg/injection, schedule: Q04DX002 (ip), vehicle: saline with Tween-80): 100 % of control
T/C (dose: 200.0 mg/kg/injection, schedule: Q04DX002 (ip), vehicle: saline with Tween-80): 104 % of control
T/C (dose: 400.0 mg/kg/injection, schedule: Q04DX002 (ip), vehicle: saline with Tween-80): 100 % of control

CCOC(=O)/C=C/P(=O)(OCC)OCC
T/C [1]: 108 % of control
T/C [2]: 94 % of control
T/C [3]: 96 % of control
